Converted amounts (≈) assume the structure as drawn. Like-named read-outs stand apart in the source and are kept apart here.
Assays:
Assay in all cases: Mueller-Hinton agar dilution method (MIC)
Format in all cases: cell-based
Klebsiella pneumoniae = conditions: for MIC: Klebsiella pneumoniae
Klebsiella oxytoca = conditions: read-out: Minimal Inhibitory Concentration
Enterobacter aerogenes = conditions: Klebsiella aerogenes
Enterobacter cloacae = system: Enterobacter cloacae
Serratia marcescens = conditions: read-out: Minimal Inhibitory Concentration
Proteus morganii = conditions: Morganella morganii, read-out: Minimal Inhibitory Concentration
Proteus rettgeri = conditions: Providencia rettgeri, read-out: Minimal Inhibitory Concentration
Providencia stuartti = conditions: read-out: Minimal Inhibitory Concentration
Escherichia coli = conditions: read-out: Minimal Inhibitory Concentration
Micrococcus luteus = conditions: read-out: Minimal Inhibitory Concentration
From the text: (§1) The results appear in Tables I, II, and III.

Salmonella sp. = conditions: strain SSC-79-57, Table III, read-out: Minimal Inhibitory Concentration
From the text: as §1

Salmonella (arizona) = conditions: read-out: Minimal Inhibitory Concentration
Citrobacter sp. = conditions: read-out: Minimal Inhibitory Concentration
Acinetobacter sp. = conditions: read-out: Minimal Inhibitory Concentration
Pseudomonas aeruginosa = system: Pseudomonas aeruginosa
Enterococcus sp. = conditions: for MIC: Enterococcus
Staphylococcus aureus = system: Staphylococcus aureus
[1] = ATCC25922, strain ATCC 25922, Table III

SMILES: CC(=O)OCC1=C(C(=O)O)N2C(=O)[C@@H](NC(=O)Cc3cccs3)[C@H]2SC1 [II]
- MIC (Klebsiella pneumoniae; read-out: Minimal Inhibitory Concentration, strain AD, Table III): 0.03 µg/mL (≈ 0.0757 µM)
- MIC (Klebsiella pneumoniae; read-out: Minimal Inhibitory Concentration, strain SSC-78-1, Table I): 1 µg/mL (≈ 2.52 µM)
- MIC (Klebsiella pneumoniae; read-out: Minimal Inhibitory Concentration, strain SSC-78-1, Table III): 1 µg/mL (≈ 2.52 µM)
- MIC (Klebsiella pneumoniae; read-out: Minimal Inhibitory Concentration, strain STFD-79-6, Table III): 0.5 µg/mL (≈ 1.26 µM)
- MIC (Klebsiella pneumoniae; read-out: Minimal Inhibitory Concentration, strain STFD-79-16, Table I): 1 µg/mL (≈ 2.52 µM)
- MIC (Klebsiella oxytoca): 2 µg/mL (≈ 5.04 µM)
- MIC (Enterobacter aerogenes; read-out: Minimal Inhibitory Concentration, strain STFD-79-14, Table I): 128 µg/mL (≈ 323 µM)
- MIC (Enterobacter aerogenes; read-out: Minimal Inhibitory Concentration, strain STFD-79-14, Table III): > 128 µg/mL
- MIC (Enterobacter cloacae; read-out: Minimal Inhibitory Concentration, strain K-79-16, Table I): > 128 µg/mL
- MIC (Enterobacter cloacae; read-out: Minimal Inhibitory Concentration, strain K-79-16, Table III): > 128 µg/mL
- MIC (Enterobacter cloacae; read-out: Minimal Inhibitory Concentration, strain K-81-46, Table I): 64 µg/mL (≈ 161 µM)
- MIC (Serratia marcescens): > 128 µg/mL
- MIC (Proteus morganii): > 128 µg/mL
- MIC (Proteus rettgeri): > 128 µg/mL
- MIC (Providencia stuartti): > 128 µg/mL
- MIC (Escherichia coli; [1]): 2 µg/mL (≈ 5.04 µM)
- MIC (Escherichia coli; strain #311, Table I): 4 µg/mL (≈ 10.1 µM)
- MIC (Escherichia coli; strain #311, Table III): 4 µg/mL (≈ 10.1 µM)
- MIC (Escherichia coli; strain ESS 22-31, Table III): ≤ 0.03 µg/mL
- MIC (Escherichia coli; strain K-81-14, Table I): 64 µg/mL (≈ 161 µM)
- MIC (Escherichia coli; strain STFD-79-20, Table I): 4 µg/mL (≈ 10.1 µM)
- MIC (Escherichia coli; strain STFD-79-20, Table III): 2 µg/mL (≈ 5.04 µM)
- MIC (Micrococcus luteus): 0.03 µg/mL (≈ 0.0757 µM)
- MIC (Salmonella sp.): 64 µg/mL (≈ 161 µM)
- MIC (Salmonella (arizona)): 2 µg/mL (≈ 5.04 µM)
- MIC (Citrobacter sp.): 1 µg/mL (≈ 2.52 µM)
- MIC (Acinetobacter sp.): > 128 µg/mL
- MIC (Pseudomonas aeruginosa; ATCC27853, read-out: Minimal Inhibitory Concentration): > 128 µg/mL
- MIC (Pseudomonas aeruginosa; read-out: Minimal Inhibitory Concentration): > 128 µg/mL
- MIC (Enterococcus sp.; read-out: Minimal Inhibitory Concentration, strain OSU-75-1, Table I): 32 µg/mL (≈ 80.7 µM)
- MIC (Enterococcus sp.; read-out: Minimal Inhibitory Concentration, strain OSU-75-1, Table III): 16 µg/mL (≈ 40.4 µM)
- MIC (Enterococcus sp.; read-out: Minimal Inhibitory Concentration, strain SM-77-15, Table I): 32 µg/mL (≈ 80.7 µM)
- MIC (Enterococcus sp.; read-out: Minimal Inhibitory Concentration, strain SM-77-15, Table III): 16 µg/mL (≈ 40.4 µM)
- MIC (Staphylococcus aureus; read-out: Minimal Inhibitory Concentration, strain FU-79-19-2, Table I): 0.5 µg/mL (≈ 1.26 µM)
- MIC (Staphylococcus aureus; read-out: Minimal Inhibitory Concentration, strain FU-79-19-2, Table III): 0.12 µg/mL (≈ 0.303 µM)
- MIC (Staphylococcus aureus; read-out: Minimal Inhibitory Concentration, strain SSC-79-18, Table I): 0.25 µg/mL (≈ 0.631 µM)
- MIC (Staphylococcus aureus; read-out: Minimal Inhibitory Concentration, strain SSC-79-18, Table III): 0.12 µg/mL (≈ 0.303 µM)
- MIC (Staphylococcus aureus; read-out: Minimal Inhibitory Concentration, strain SSC-80-15, Table I): 0.5 µg/mL (≈ 1.26 µM)
- MIC (Staphylococcus aureus; read-out: Minimal Inhibitory Concentration, strain SSC-80-15, Table III): 0.5 µg/mL (≈ 1.26 µM)
- MIC (Staphylococcus aureus; read-out: Minimal Inhibitory Concentration, strain Smith, Table I): 0.12 µg/mL (≈ 0.303 µM)
- MIC (Staphylococcus aureus; read-out: Minimal Inhibitory Concentration, strain Smith, Table III): 0.03 µg/mL (≈ 0.0757 µM)

SMILES: CO/N=C(\C(=O)N[C@@H]1C(=O)N2C(C(=O)O)=C(CSc3snnc3C)CS[C@H]12)c1csc(N)n1 [Compound Ib(i), 7-β-[α-syn-methoxyimino-α-(2-aminothiazol-4-yl)acetamido]-3-[(1,2,3-thiadiazol-4-methyl-5-ylthio)methyl]-3-cephem-4-carboxylic acid]
- MIC (Klebsiella pneumoniae; strain STFD-79-6, Table III, read-out: Minimal Inhibitory Concentration): ≤ 0.03 µg/mL
- Minimal Inhibitory Concentration (Klebsiella pneumoniae; strain AD, Table III): ≤ .03 µg/mL
- Minimal Inhibitory Concentration (Klebsiella pneumoniae; strain SSC-78-1, Table III): ≤ .03 µg/mL
- MIC (Enterobacter aerogenes; strain STFD-79-14, Table III, read-out: Minimal Inhibitory Concentration): 0.12 µg/mL (≈ 0.227 µM)
- MIC (Enterobacter cloacae; strain K-79-16, Table III, read-out: Minimal Inhibitory Concentration): 0.25 µg/mL (≈ 0.474 µM)
- MIC (Serratia marcescens; strain QHC-77-2, Table III): 2 µg/mL (≈ 3.79 µM)
- MIC (Serratia marcescens; strain TUL-78-15, Table III): 2 µg/mL (≈ 3.79 µM)
- MIC (Proteus morganii; strain K-79-25, Table III): ≤ 0.03 µg/mL
- MIC (Proteus rettgeri; strain N-76-1, Table III): ≤ 0.03 µg/mL
- MIC (Escherichia coli; [1]): ≤ 0.03 µg/mL
- MIC (Escherichia coli; strain #311, Table III): 0.06 µg/mL (≈ 0.114 µM)
- MIC (Escherichia coli; strain ESS 22-31, Table III): ≤ 0.03 µg/mL
- MIC (Escherichia coli; strain STFD-79-20, Table III): ≤ 0.03 µg/mL
- MIC (Micrococcus luteus; strain PCI 1001, Table III): ≤ 0.03 µg/mL
- MIC (Salmonella sp.): 1 µg/mL (≈ 1.9 µM)
- MIC (Salmonella (arizona); strain QHC-77-3, Table III): 0.06 µg/mL (≈ 0.114 µM)
- MIC (Acinetobacter sp.; strain K-77-1, Table III): 4 µg/mL (≈ 7.58 µM)
- MIC (Acinetobacter sp.; strain STFD-79-17, Table III): 32 µg/mL (≈ 60.6 µM)
- MIC (Pseudomonas aeruginosa; ATCC27853, strain ATCC 27853, Table III, read-out: Minimal Inhibitory Concentration): 64 µg/mL (≈ 121 µM)
- MIC (Pseudomonas aeruginosa; strain 12-4-4, Table III, read-out: Minimal Inhibitory Concentration): 64 µg/mL (≈ 121 µM)
- MIC (Pseudomonas aeruginosa; strain SSC-78-13, Table III, read-out: Minimal Inhibitory Concentration): 64 µg/mL (≈ 121 µM)
- MIC (Enterococcus sp.; strain OSU-75-1, Table III, read-out: Minimal Inhibitory Concentration): 8 µg/mL (≈ 15.2 µM)
- Minimal Inhibitory Concentration (Enterococcus sp.; strain SM-77-15, Table III): 8 µg/mL
- MIC (Staphylococcus aureus; strain FU-79-19-2, Table III, read-out: Minimal Inhibitory Concentration): 0.5 µg/mL (≈ 0.948 µM)
- MIC (Staphylococcus aureus; strain SSC-79-18, Table III, read-out: Minimal Inhibitory Concentration): 0.25 µg/mL (≈ 0.474 µM)
- MIC (Staphylococcus aureus; strain SSC-80-15, Table III, read-out: Minimal Inhibitory Concentration): 1 µg/mL (≈ 1.9 µM)
- MIC (Staphylococcus aureus; strain Smith, Table III, read-out: Minimal Inhibitory Concentration): 0.25 µg/mL (≈ 0.474 µM)
